The source made the active and inactive calls.
What was measured:
HeLa = test: HeLa cell cytotoxicity, dose response, cytotoxicity control for MITF activator project, CellTiter-Glo luminescence, cherry-pick samples (AID 540259); format: functional, cell-based; conditions: Homo sapiens
INS1 = test: beta cell apoptosis inhibitors, cytokine rescue, dose response, luminescence, retest (AID 449756); format: functional, cell-based; conditions: Rattus norvegicus;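 further: cell death triggered by IL-1 beta plus TNF-alpha plus IFN-gamma mixture; protective hits raise ATP signal compared with cytokine alone wells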
[1] = target: Heat shock protein HSP 90-alpha (Homo sapiens, UniProt P07900); format: functional, organism-based
[2] = HepG2 cell cytotoxicity, dose response, cytotoxicity control for Shn3 inhibitor project, CellTiter-Glo, cherry-picked (AID 624134); format: functional, cell-based
[3] = control 3'UTR Renilla luciferase suppression, dose response, counter-screen for Shn3 inhibitor project, cell-based, Clone20-Shn3RL, cherry-picked (AID 624133); format: functional
[4] = microbe, parasite or virus in culture; format: functional; conditions: Mycobacterium tuberculosis
CHO = test: cytotoxicity in TLR9-MyD88 CHO cells, dose response, cytotoxicity control for TLR9-MyD88 binding inhibitor project, cell-based, luminescence (AID 588339); format: functional, hamster; conditions: Cricetulus griseus;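 further: CHO cells stably coexpressing TLR9 and MyD88 fusions from primary screen; compound exposure lasted 48 hours before viability readout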
[5] = Shn3 3'UTR reporter inhibitors, dose response, cell-based, Clone20 osteoblasts, firefly luciferase, cherry-picked (AID 624132); format: functional;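 further: firefly luciferase luminescence from reporter carrying the Shn3 3'UTR in osteoblasts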
[6] = target: Voltage-gated inwardly rectifying potassium channel KCNH2 (Homo sapiens, UniProt Q12809); conditions: Potency;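 further: confirmatory quantitative high-throughput screen measuring inhibition of hERG channel activity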
Chain of Voltage-gated inwardly rectifying potassium channel KCNH2 (Q12809 whole entry): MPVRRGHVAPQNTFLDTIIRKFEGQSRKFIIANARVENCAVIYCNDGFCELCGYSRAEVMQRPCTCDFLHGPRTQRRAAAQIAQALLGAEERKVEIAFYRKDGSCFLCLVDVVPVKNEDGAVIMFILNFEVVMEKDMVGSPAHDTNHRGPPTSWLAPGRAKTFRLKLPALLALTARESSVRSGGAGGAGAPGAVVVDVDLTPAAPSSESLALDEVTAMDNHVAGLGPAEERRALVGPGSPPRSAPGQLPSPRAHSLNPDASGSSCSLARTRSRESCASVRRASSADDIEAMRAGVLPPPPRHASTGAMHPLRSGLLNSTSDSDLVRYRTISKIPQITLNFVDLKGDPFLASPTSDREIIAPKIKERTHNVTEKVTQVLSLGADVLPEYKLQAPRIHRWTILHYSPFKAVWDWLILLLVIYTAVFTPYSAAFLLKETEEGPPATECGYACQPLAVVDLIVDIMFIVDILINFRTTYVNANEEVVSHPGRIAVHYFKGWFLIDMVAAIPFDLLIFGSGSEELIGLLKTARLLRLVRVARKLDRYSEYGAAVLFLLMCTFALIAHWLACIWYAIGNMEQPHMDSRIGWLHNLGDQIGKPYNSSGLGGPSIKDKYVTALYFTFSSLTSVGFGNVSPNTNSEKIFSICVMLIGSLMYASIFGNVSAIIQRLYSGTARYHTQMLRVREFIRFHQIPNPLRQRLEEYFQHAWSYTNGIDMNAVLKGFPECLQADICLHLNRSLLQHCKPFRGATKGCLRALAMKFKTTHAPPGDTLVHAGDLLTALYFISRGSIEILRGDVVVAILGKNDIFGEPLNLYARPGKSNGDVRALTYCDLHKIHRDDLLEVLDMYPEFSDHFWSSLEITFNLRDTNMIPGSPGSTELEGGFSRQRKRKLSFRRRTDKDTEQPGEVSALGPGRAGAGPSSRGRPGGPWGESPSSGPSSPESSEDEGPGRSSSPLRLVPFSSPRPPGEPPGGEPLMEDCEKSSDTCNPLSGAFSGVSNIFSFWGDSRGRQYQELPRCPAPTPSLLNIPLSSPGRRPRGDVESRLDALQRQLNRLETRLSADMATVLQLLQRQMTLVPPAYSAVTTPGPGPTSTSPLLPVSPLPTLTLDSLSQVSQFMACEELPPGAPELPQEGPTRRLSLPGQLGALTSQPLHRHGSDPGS

[7] = nonselective inhibitors of cellular cAMP signaling, dose response, counter-screen for MC4R biased antagonist project, cell-based, TR-FRET cAMP detection (AID 602305); format: functional;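 further: U2OS cells stimulated with forskolin near its EC80 as the cAMP inducer; potency is for inhibition of forskolin-stimulated cAMP signaling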
Melanocortin receptor 4 = Melanocortin receptor 4 (Homo sapiens, UniProt P32245); test: MC4R antagonist potency on cAMP, dose response, cell-based, TR-FRET, biased antagonists (AID 602298); format: functional;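 further: antagonist potency against agonist-stimulated cAMP production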
Chain of Melanocortin receptor 4 (P32245 whole entry): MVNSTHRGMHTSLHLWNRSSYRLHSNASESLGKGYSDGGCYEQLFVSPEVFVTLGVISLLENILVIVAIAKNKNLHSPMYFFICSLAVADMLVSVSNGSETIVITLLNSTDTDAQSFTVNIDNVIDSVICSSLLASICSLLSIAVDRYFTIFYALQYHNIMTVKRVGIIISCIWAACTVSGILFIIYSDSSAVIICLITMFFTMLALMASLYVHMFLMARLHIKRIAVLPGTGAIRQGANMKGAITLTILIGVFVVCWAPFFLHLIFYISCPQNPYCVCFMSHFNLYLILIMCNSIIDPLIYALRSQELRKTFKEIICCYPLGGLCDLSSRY

## COc1nc(C)ccc1-c1noc(-c2ccncc2)n1
HeLa
  AC50: 40 µM (active)

## N=C(NOC(=O)C12CC3CC(CC(C3)C1)C2)c1ccccn1
HeLa
  AC50: 27.5 µM (active)

## Cc1ccc(-n2c(Cl)c(Cl)nc(Cl)c2=O)cc1
INS1
  AC50: 4.43 µM (active)
[1]
  AC50: 1.38 µM (active)
[2]
  AC50: 8.89 µM (active)
[3]
  AC50: 3.58 µM (active)
[4]
  CC50: 39.1 µM (active)
CHO
  IC50: 1.39 µM (active)
[5]
  AC50: 1.77 µM (active)

## Cc1ccccc1C(N)=O
[6]
  AC50: 35.5 µM (inconclusive)

## CCOC(=O)c1sc(NC(=O)CCN2CCN(CC)CC2)c(C(=O)OCC)c1C
[7]
  IC50: > 64.6 µM (inactive)
Melanocortin receptor 4
  IC50: > 64.6 µM (inactive)

— ChEMBL document CHEMBL1201862, “PubChem BioAssay data set” (2004)
